Reference: patent US8519149B2, “Tricyclic compounds as mPGES-1 inhibitors” (Glenmark Pharmaceuticals S.A., priority 2010, dated 2013)

Target: T1, Recombinant human mPGES-1 (Homo sapiens, UniProt O14684)
T1 sequence (O14684 1-152): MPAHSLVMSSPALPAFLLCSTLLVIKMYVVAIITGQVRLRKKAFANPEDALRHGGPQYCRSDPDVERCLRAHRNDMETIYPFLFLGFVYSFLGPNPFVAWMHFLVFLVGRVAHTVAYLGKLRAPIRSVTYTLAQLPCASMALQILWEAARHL
Experiment: In-vitro mPGES-1 enzyme inhibition assay (PGE2 formation from PGH2, HTRF detection)
Assay type: biochemical
Conditions: for inhibition at 1 µM: 1 μM test compound, read-out: Percentage inhibition at 1 μM; for inhibition at 1 µM / inhibition at 10 µM: recombinant human mPGES-1 microsomal fraction; for inhibition at 10 µM: 10 μM test compound, read-out: Percentage inhibition at 10 μM; for IC50: class symbols, selected examples
Procedure, shortened: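 IC50 values were derived by nonlinear regression of percent inhibition relative to enzyme reactions run without inhibitor. PGE2 formed from PGH2 with GSH was quantified by antibody-based HTRF after stannous chloride quench. Enzyme source was human mPGES-1 microsomes at 40-60 μg/mL protein; DMSO 0.5% (v/v).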

Compound: CC1(C)Cc2c(c(C(=O)Nc3cc(C(F)(F)F)ccc3F)cc3nc(Nc4c(F)cccc4Cl)[nH]c23)O1 [Example-111, 2-[(2-Chloro-6-fluorophenyl)amino]-N-[2-fluoro-5-(trifluoromethyl)phenyl]-7,7-dimethyl-7,8-dihydro-1H-furo[3,2-e]benzimidazole-5-carboxamide]
- inhibition at 1 µM: 96.4%
- inhibition at 10 µM: 99.8%
- IC50: < 50 nM

Compound: Cc1ccc(Nc2nc3cc(C(=O)Nc4ccc(C(F)(F)F)cc4)c4c(c3[nH]2)CC(C)(C)O4)c(C)n1 [Example-103, 2-[(2,6-Dimethylpyridin-3-yl)amino]-7,7-dimethyl-N-[4-(trifluoromethyl)phenyl]-7,8-dihydro-1H-furo[3,2-e]benzimidazole-5-carboxamide]
- inhibition at 1 µM: 7.88%
- inhibition at 10 µM: 25.8%

Compound: Cc1nc2c(o1)c(C(=O)Nc1cc(C(F)(F)F)ccc1F)cc1nc(Nc3c(F)cccc3Cl)[nH]c12 [Example-186, 7-((2-Chloro-6-fluorophenyl)amino)-N-(2-fluoro-5-(trifluoromethyl)phenyl)-2-methyl-8H-imidazol[4′,5′:5,6]-benzo[1,2-d]oxazole-4-carboxamide]
- inhibition at 1 µM: 98.6%
- inhibition at 10 µM: 98.5%
- IC50: < 50 nM

Compound: CC1(C)Cc2c(c(C(=O)Nc3ccc(C(F)(F)F)cn3)cc3nc(Nc4c(F)cccc4Cl)[nH]c23)O1 [Example-122, 2-[(2-Chloro-6-fluorophenyl)amino]-7,7-dimethyl-N-[5-(trifluoromethyl)pyridin-2-yl]-7,8-dihydro-1H-furo[3,2-e]benzimidazole-5-carboxamide]
- inhibition at 1 µM: 96%
- inhibition at 10 µM: 98.1%
- IC50: < 50 nM

Compound: Cc1cccc(Cl)c1Nc1nc2cc(C(=O)Nc3cc(C(F)(F)F)ccc3F)c3c(c2[nH]1)CC(C)(C)O3 [Example-110, 2-[(2-Chloro-6-methylphenyl)amino]-N-[2-fluoro-5-(trifluoromethyl)phenyl]-7,7-dimethyl-7,8-dihydro-1H-furo[3,2-e]benzimidazole-5-carboxamide]
- inhibition at 1 µM: 96.6%
- inhibition at 10 µM: 97.2%
- IC50: < 50 nM

Compound: CC1(C)Cc2c(c(C(=O)Nc3ccc(F)c(C(F)(F)F)c3)cc3nc(Nc4c(Cl)cncc4Cl)[nH]c23)O1 [Example-196, 2-((3,5-Dichloropyridin-4-yl)amino)-N-(4-fluoro-3-(trifluoromethyl)phenyl)-7,7-dimethyl-7,8-dihydro-1H-benzofuro[4,5-d]imidazole-5-carboxamide]
- inhibition at 1 µM: 100%
- inhibition at 10 µM: 98.8%

Compound: CC1(C)Cc2c(c(C(=O)NC34CC5CC(CC(C5)C3)C4)cc3nc(Nc4c(Cl)cncc4Cl)[nH]c23)O1 [Example-19, N-Adamantan-1-yl-2-[(3,5-dichloropyridin-4-yl)amino]-7,7-dimethyl-7,8-dihydro-1H-furo[3,2-e]benzimidazole-5-carboxamide]
- inhibition at 1 µM: 97.8%
- inhibition at 10 µM: 98.3%
- IC50: < 50 nM

Compound: CC1(C)Cc2c(c(C(=O)Nc3cccc(C4CC4)c3)cc3nc(Nc4c(F)cccc4Cl)[nH]c23)O1 [Example-165, 2-((2-Chloro-6-fluorophenyl)amino)-N-(3-cyclopropylphenyl)-7,7-dimethyl-7,8-dihydro-1H-benzofuro[4,5-d]imidazole-5-carboxamide]
- inhibition at 1 µM: 99.4%
- inhibition at 10 µM: 98.1%
- IC50: < 50 nM

Compound: CC1(C)Cc2c(c(C(=O)Nc3cc(C4CC4)ccc3F)cc3nc(Nc4c(Cl)cccc4Cl)[nH]c23)O1 [Example-159, N-(5-Cyclopropyl-2-fluorophenyl)-2-((2,6-dichlorophenyl)amino)-7,7-dimethyl-7,8-dihydro-1H-benzofuro[4,5-d]imidazole-5-carboxamide]
- inhibition at 1 µM: 98.9%
- inhibition at 10 µM: 100%
- IC50: < 50 nM

Compound: CC1(C)Cc2c(c(C(=O)Nc3ccccc3C(F)(F)F)cc3nc(Nc4ccccc4Cl)[nH]c23)O1 [Example-79, 2-[(2-Chlorophenyl)amino]-7,7-dimethyl-N-[2-(trifluoromethyl)phenyl]-7,8-dihydro-1H-furo[3,2-e]benzimidazole-5-carboxamide]
- inhibition at 1 µM: 97.4%
- inhibition at 10 µM: 91.9%
- IC50: 50 to 100 nM

Compound: CC1(C)Cc2c(c(C(=O)NCC(F)(F)F)cc3nc(Nc4c(Cl)cccc4Cl)[nH]c23)O1 [Example-62, 2-[(2,6-Dichlorophenyl)amino]-7,7-dimethyl-N-(2,2,2-trifluoroethyl)-7,8-dihydro-1H-furo[3,2-e]benzimidazole-5-carboxamide]
- inhibition at 1 µM: 96.8%
- inhibition at 10 µM: 94.3%

Compound: Cc1nc2c(o1)c(C(=O)Nc1ccc(F)c(C(F)(F)F)c1)cc1nc(Nc3c(F)cccc3Cl)[nH]c12 [Example-187, 7-((2-Chloro-6-fluorophenyl)amino)-N-(4-fluoro-3-(trifluoromethyl)phenyl)-2-methyl-8H-imidazo[4′,5′:5,6]benzo[1,2-d]oxazole-4-carboxamide]
- inhibition at 1 µM: 95.8%
- inhibition at 10 µM: 83%
- IC50: < 50 nM

Compound: Cn1c(Nc2c(Cl)cncc2Cl)nc2cc(C(=O)Nc3cccc(C(F)(F)F)c3)c3c(c21)CC(C)(C)O3 [Example-214, 2-((3,5-Dichloropyridin-4-yl)amino)-1,7,7-trimethyl-N-(3-(trifluoromethyl)phenyl)-7,8-dihydro-1H-benzofuro[4,5-d]imidazole-5-carboxamide]
- inhibition at 1 µM: 98.4%
- inhibition at 10 µM: 96.5%

Compound: Cc1cccc(Cl)c1Nc1nc2cc(C(=O)NC3(c4cccc(C(F)(F)F)c4)CC3)c3c(c2[nH]1)CC(C)(C)O3 [Example-132, 2-((2-Chloro-6-methylphenyl)amino)-7,7-dimethyl-N-(1-(3-(trifluoromethyl)phenyl)cyclopropyl)-7,8-dihydro-1H-benzofuro[4,5-d]imidazole-5-carboxamide]
- inhibition at 1 µM: 92.4%
- inhibition at 10 µM: 98%
- IC50: < 50 nM

Compound: Cc1cccc(Cl)c1Nc1nc2cc(C(=O)Nc3cc(C(F)F)ccc3F)c3c(c2[nH]1)CC(C)(C)O3 [Example-135, 2-((2-Chloro-6-methylphenyl)amino)-N-(5-(difluoromethyl)-2-fluorophenyl)-7,7-dimethyl-7,8-dihydro-1H-benzofuro[4,5-d]imidazole-5-carboxamide]
- inhibition at 1 µM: 97.5%
- inhibition at 10 µM: 98.6%
- IC50: < 50 nM

Compound: CC1(C)Cc2c(c(C(=O)Nc3ccc(Br)cc3)cc3nc(Nc4ccccc4Cl)[nH]c23)O1 [Example-78, N-(4-Bromophenyl)-2-[(2-chlorophenyl)amino]-7,7-dimethyl-7,8-dihydro-1H-furo[3,2-e]benzimidazole-5-carboxamide]
- inhibition at 1 µM: 88.5%
- inhibition at 10 µM: 96.4%
- IC50: < 50 nM

Compound: CC1(C)Cc2c(c(C(=O)Nc3cc(F)c(F)cc3F)cc3nc(Nc4c(F)cccc4Cl)[nH]c23)O1 [Example-193, 2-((2-Chloro-6-fluorophenyl)amino)-7,7-dimethyl-N-(2,4,5-trifluorophenyl)-7,8-dihydro-1H-benzofuro[4,5-d]imidazole-5-carboxamide]
- inhibition at 1 µM: 96.4%
- inhibition at 10 µM: 94.7%
- IC50: < 50 nM

Compound: CC1(C)Cc2c(c(C(=O)Nc3ccccc3C(F)(F)F)cc3nc(Nc4c(F)cccc4Cl)[nH]c23)O1 [Example-77, 2-[(2-Chloro-6-fluorophenyl)amino]-7,7-dimethyl-N-[2-(trifluoromethyl)phenyl]-7,8-dihydro-1H-furo[3,2-e]benzimidazole-5-carboxamide]
- inhibition at 1 µM: 93.1%
- inhibition at 10 µM: 89.9%
- IC50: < 50 nM

Compound: CC1(C)Cc2c(c(C(=O)NCc3ccc(F)cc3)cc3nc(Nc4c(F)cccc4Cl)[nH]c23)O1 [Example-39, 2-[(2-Chloro-6-fluorophenyl)amino]-N-(4-fluorobenzyl)-7,7-dimethyl-7,8-dihydro-1H-furo[3,2-e]benzimidazole-5-carboxamide]
- inhibition at 1 µM: 92.5%
- inhibition at 10 µM: 70.7%
- IC50: < 50 nM

Compound: Cc1cc2c(o1)c(C(=O)Nc1ccc(Br)cc1)cc1nc(Nc3c(Cl)cccc3Cl)[nH]c12 [Example-66, N-(4-Bromophenyl)-2-[(2,6-dichlorophenyl)amino]-7-methyl-1H-furo[3,2-e]benzimidazole-5-carboxamide]
- inhibition at 1 µM: 96.4%
- inhibition at 10 µM: 95.2%
- IC50: < 50 nM

Compound: CC1(C)Cc2c(c(C(=O)Nc3ncc(Cl)cc3F)cc3nc(Nc4c(F)cccc4Cl)[nH]c23)O1 [Example-126, N-(5-Chloro-3-fluoropyridin-2-yl)-2-((2-chloro-6-fluorophenyl)amino)-7,7-dimethyl-7,8-dihydro-1H-benzofuro[4,5-d]imidazole-5-carboxamide]
- inhibition at 1 µM: 96.6%
- inhibition at 10 µM: 97.7%
- IC50: < 50 nM

Compound: COCCn1c(Nc2c(Cl)cccc2Cl)nc2cc(C(=O)Nc3ccccc3C(F)(F)F)c3c(c21)CC(C)(C)O3 [Example-100, 2-[(2,6-Dichlorophenyl)amino]-1-(2-methoxyethyl)-7,7-dimethyl-N-[2-(trifluoromethyl)phenyl]-7,8-dihydro-1H-furo[3,2-e]benzimidazole-5-carboxamide]
- inhibition at 1 µM: 96.6%
- inhibition at 10 µM: 95.6%
- IC50: < 50 nM

Compound: CC1(C)Cc2c(c(C(=O)Nc3cc(C4CC4)ccc3F)cc3nc(Nc4c(F)cccc4Cl)[nH]c23)O1 [Example-134, 2-((2-Chloro-6-fluorophenyl)amino)-N-(5-cyclopropyl-2-fluorophenyl)-7,7-dimethyl-7,8-dihydro-1H-benzofuro[4,5-d]imidazole-5-carboxamide]
- inhibition at 1 µM: 99.9%
- inhibition at 10 µM: 99.4%
- IC50: < 50 nM
